Where two headings read alike, the source gives them in different places.
Biological target: T1, CCR4 (Homo sapiens, UniProt P51679)
T1 construct: expressed in transfected cells; host or cells: CHO-K1
T1 sequence (P51679 1-360): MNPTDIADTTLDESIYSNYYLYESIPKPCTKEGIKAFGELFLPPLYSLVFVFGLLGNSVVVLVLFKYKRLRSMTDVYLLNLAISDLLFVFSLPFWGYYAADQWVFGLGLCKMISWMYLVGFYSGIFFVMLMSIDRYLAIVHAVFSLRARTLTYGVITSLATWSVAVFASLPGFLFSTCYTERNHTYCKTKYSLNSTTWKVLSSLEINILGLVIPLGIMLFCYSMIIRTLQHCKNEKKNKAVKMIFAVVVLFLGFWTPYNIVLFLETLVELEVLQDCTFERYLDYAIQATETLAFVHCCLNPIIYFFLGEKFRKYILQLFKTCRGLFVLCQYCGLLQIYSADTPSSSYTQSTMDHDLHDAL
Assay: β-Arrestin recruitment assay (CHO-K1 CCR4 β-Arrestin cells stimulated with recombinant human CCL22)
Format: cell-based
Details: CCL22 10 nM stimulation; for IC50: read-out: CCR4 antagonistic activity IC50 (μM) in range; for inhibition: read-out: % inhibition at 5 μM/30 μM (% E-Max)
Protocol: CHO-K1 CCR4 β-Arrestin cells were seeded and incubated overnight at 37° C. in a CO2 incubator for adherence. Next day, cells were pretreated with various concentrations of CCR4 modulators for 30 mins at 37° C. The cells were stimulated with recombinant human CCL22 (10 nM) and further incubated for 90 mins. Working detection solution was added and incubated at room temperature for 1 hour after which the chemiluminescent signal was read using a luminometer.
Exemplary compounds of the present application were screened by the above-mentioned assay and the results were tabulated.

[1] = CHO-K1, read-out: % inhibition 30 μM (% E-Max)

| IC50 [µM] | inhibition [1] [%] | inhibition (CHO-K1, at 30 μM) [%] | Compound |
| --- | --- | --- | --- |
| < 0.25 | 103 | – | C[C@@H](Nc1c(C#N)ccc2nc(N3CC([C@H]4CCCN([C@H]5C[C@](C)(C(=O)O)C5)C4)C3)oc12)c1ccc(Cl)cc1Cl [Compound 21] |
| – | 52 | – | C[C@@H](Nc1c(OC(F)F)ccc2nc(N3CC([C@H]4CCCN([C@H]5C[C@](C)(C(=O)O)C5)C4)C3)sc12)c1ncc(Cl)cc1Cl [Compound 48] |
| – | 61 | – | C[C@@H](Nc1c(Cl)ccc2nc(N3CC([C@H]4CCCN(C5(CC(=O)O)CCC5)C4)C3)oc12)c1ccc(Cl)cc1Cl [Compound 24] |
| 0.25 to 0.5 | 99 | – | CC(Nc1c(F)cnc2nc(N3CC([C@H]4CCCN([C@H]5C[C@](C)(C(=O)O)C5)C4)C3)sc12)c1ncc(F)cc1F (stereo partly shown) [Compound 44] |
| 0.25 to 0.5 | 81 | – | CC(Nc1c(F)ccc2nc(N3CC([C@H]4CCCN([C@H]5C[C@](C)(C(=O)O)C5)C4)C3)sc12)c1ncc(F)cc1F (stereo partly shown) [Compound 38] |
| 0.25 to 0.5 | 103 | – | C[C@@H](Nc1c(F)cnc2nc(N3CC([C@H]4CCCN([C@H]5C[C@](C)(C(=O)O)C5)C4)C3)sc12)c1ncc(Cl)cc1Cl (single isomer, unassigned) [Compound 42] |
| 0.25 to 0.5 | 94 | – | C[C@@H](Nc1ncnc2nc(N3CC([C@H]4CCCN([C@H]5C[C@](C)(C(=O)O)C5)C4)C3)sc12)c1ncc(Cl)cc1Cl [Compound 53] |
| < 0.25 | – | 104 | C[C@@H](Nc1c(F)ccc2nc(N3CC([C@H]4CCCN([C@H]5C[C@](C)(C(=O)O)C5)C4)C3)oc12)c1ccc(Cl)cc1Cl [Compound 6] |
| 0.25 to 0.5 | 96.4 | – | C[C@@H](Nc1nccc2nc(N3CC([C@H]4CCCN([C@H]5C[C@](C)(C(=O)O)C5)C4)C3)oc12)c1ccc(Cl)cc1Cl [Compound 14] |
| > 0.5 | 95 | – | C[C@H](Nc1c(F)cnc2nc(N3CC([C@H]4CCCN([C@H]5C[C@](C)(C(=O)O)C5)C4)C3)sc12)c1ncc(Cl)cc1Cl (single isomer, unassigned) [Compound 43] |
| < 0.25 | 101 | – | C[C@@H](Nc1c(C(F)(F)F)ccc2nc(N3CC([C@H]4CCCN([C@H]5C[C@](C)(C(=O)O)C5)C4)C3)oc12)c1ccc(Cl)cc1Cl [Compound 13] |
| – | 41.5 | – | C[C@@H](Nc1c(C(=O)N(C)C)ccc2nc(N3CC([C@H]4CCCN([C@H]5C[C@](C)(C(=O)O)C5)C4)C3)oc12)c1ccc(Cl)cc1Cl [Compound 20] |
| 0.25 to 0.5 | 102 | – | C[C@@H](Nc1c(Cl)cnc2nc(N3CC([C@H]4CCCN([C@H]5C[C@](C)(C(=O)O)C5)C4)C3)oc12)c1ccc(Cl)cc1Cl [Compound 17] |
| < 0.25 | 103 | – | C[C@@H](Nc1c(F)ccc2nc(N3CC([C@H]4CCCN([C@H]5C[C@](C)(C(=O)O)C5)C4)C3)sc12)c1ccc(F)cc1F [Compound 29] |
